Some test systems named below: NCI/ADR-RES ovarian; 786-0 renal; NCI-H226 lung; A498 renal; HT29 colon; SNB-19 CNS; UACC-257 melanoma; SK-MEL-2 melanoma; HOP-92 NSCLC; OVCAR-4 ovarian.
Common to all, as to assay: growth of human tumour cells (NCI), 48 h

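Step 1: Grow cells in 96-well plates. Step 2: Expose to compound for 48 hours at 5 concentrations. Step 3: Interpolate endpoints linearly; if unreached, use highest concentration. At the GI50, growth is halved. TGI is the concentration that stops growth completely.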

`COc1cc2c3c(n(CCCBr)c(=O)c2cc1OC)-c1ccc(F)cc1C3=O`: the GI50 is 13.3 µM in the test on NCI/ADR-RES ovarian; 4.73 µM in the test on 786-0 renal; 28 µM in the test on NCI-H226 lung; 14.8 µM with A498 renal; 16.9 µM in the test with HT29 colon; 6.34 µM in the test on SNB-19 CNS. In addition, the GI50 was 76.4 µM with UACC-257 melanoma, 23 µM with SK-MEL-2 melanoma, 4.07 µM in the test with HOP-92 NSCLC and 40 µM with OVCAR-4 ovarian. Further, the TGI in the test on NCI/ADR-RES ovarian was more than 100 µM; in the test on 786-0 renal, 17.9 µM; in the test on NCI-H226 lung, more than 100 µM; in the test with A498 renal it was 40.9 µM; with HT29 colon it was more than 100 µM; in the test with SNB-19 CNS, more than 100 µM. Besides, the TGI with UACC-257 melanoma was more than 100 µM; in the test with SK-MEL-2 melanoma it was 80.6 µM; in the test on HOP-92 NSCLC, 28.4 µM; in the test on OVCAR-4 ovarian, more than 100 µM.

For the compound `NS(=O)(=O)c1ccc(-n2ncc3c(Nc4ccccc4)ncnc32)cc1`, the GI50 is 19.5 µM in the test on NCI/ADR-RES ovarian; 18.3 µM in the test with 786-0 renal; 46.4 µM in the test with NCI-H226 lung; 24.3 µM in the test with A498 renal; 3.33 µM in the test on HT29 colon; more than 100 µM with SNB-19 CNS. Also, the GI50 in the test with UACC-257 melanoma was 39.4 µM; in the test on SK-MEL-2 melanoma, 44.3 µM; in the test with HOP-92 NSCLC, 23.6 µM; in the test on OVCAR-4 ovarian, 32.1 µM. For the same compound, the TGI in the test with NCI/ADR-RES ovarian is 55.4 µM; in the test with 786-0 renal, 55.7 µM; in the test on NCI-H226 lung, more than 100 µM; with A498 renal, 92.7 µM; with HT29 colon, 15.7 µM; with SNB-19 CNS, more than 100 µM. Further, the TGI in the test with UACC-257 melanoma, in the test with SK-MEL-2 melanoma, with HOP-92 NSCLC and with OVCAR-4 ovarian was more than 100 µM throughout.

With `COc1ccc(-c2ccc(-c3ccc(C(=N)N)cn3)o2)cc1Cl`, the GI50 was 2.56 µM with NCI/ADR-RES ovarian; 1.86 µM in the test with 786-0 renal; 2.89 µM in the test on NCI-H226 lung; 2.05 µM in the test with A498 renal; 1.87 µM with HT29 colon; 1.79 µM in the test on SNB-19 CNS. Further, the GI50 in the test on UACC-257 melanoma was 2.35 µM; in the test with SK-MEL-2 melanoma, 2.12 µM; with HOP-92 NSCLC, 1.12 µM; with OVCAR-4 ovarian it was 2.58 µM. Besides, the TGI was found to be 8.09 µM with NCI/ADR-RES ovarian; 3.4 µM in the test on 786-0 renal; 13.3 µM in the test on NCI-H226 lung; 5.57 µM with A498 renal; 3.78 µM in the test on HT29 colon; 3.4 µM in the test on SNB-19 CNS. For the same compound, the TGI worked out at 4.85 µM with UACC-257 melanoma, 3.81 µM in the test with SK-MEL-2 melanoma, 2.44 µM with HOP-92 NSCLC and 7.75 µM with OVCAR-4 ovarian.

Turning to `O=C1c2ccccc2-c2c1c1ccc([N+](=O)[O-])cc1c(=O)n2CCCNCCO`, the GI50 was 0.65 µM in the test on NCI/ADR-RES ovarian; 0.0479 µM in the test with 786-0 renal; 1.01 µM in the test with NCI-H226 lung; 1.39 µM with A498 renal; 0.053 µM with HT29 colon; 0.107 µM with SNB-19 CNS. Besides, the GI50 in the test with UACC-257 melanoma is 3.37 µM; in the test on SK-MEL-2 melanoma, 1.69 µM; with HOP-92 NSCLC it was 0.0259 µM; in the test on OVCAR-4 ovarian, 0.492 µM. Moreover, the TGI with NCI/ADR-RES ovarian amounted to 3.19 µM; in the test with 786-0 renal, 0.43 µM; with NCI-H226 lung it was 3.65 µM; in the test with A498 renal, 3.75 µM; in the test with HT29 colon it was 0.82 µM; in the test on SNB-19 CNS, 1.82 µM. For the same compound, the TGI in the test on UACC-257 melanoma was determined as 9.39 µM; with SK-MEL-2 melanoma, 3.82 µM; in the test on HOP-92 NSCLC it was 0.0899 µM; in the test with OVCAR-4 ovarian, 2.77 µM.

Regarding `OCC(CCc1c[nH]c2ccccc12)c1c[nH]c2ccccc12` (stereo not drawn), the TGI was found to be 44.1 µM in the test on NCI/ADR-RES ovarian; 29.5 µM with 786-0 renal; 36.7 µM with NCI-H226 lung; 30.2 µM in the test with A498 renal; 30.7 µM in the test with HT29 colon; 30.5 µM in the test with SNB-19 CNS. The TGI with UACC-257 melanoma was determined as 24.7 µM; in the test with SK-MEL-2 melanoma, 31.3 µM; in the test on HOP-92 NSCLC, 32.7 µM; in the test with OVCAR-4 ovarian it was 42.9 µM.

On to `O=S(=O)(NC1=NCCN1C(=S)SN1CCn2c1nsc2=S)c1ccccc1Cl`, for which the GI50 in the test with NCI/ADR-RES ovarian was 27.7 µM; in the test on 786-0 renal it was 16.7 µM; in the test on NCI-H226 lung it was 35.7 µM; with A498 renal, 24.6 µM; in the test with HT29 colon, 15.4 µM; with SNB-19 CNS, 41 µM. Also, the GI50 in the test with UACC-257 melanoma was 31.6 µM; in the test on SK-MEL-2 melanoma, 16.9 µM; with HOP-92 NSCLC it was 11 µM; with OVCAR-4 ovarian it was 15.6 µM. In addition, the TGI with NCI/ADR-RES ovarian is more than 100 µM; in the test on 786-0 renal, 39.1 µM; with NCI-H226 lung, more than 100 µM; with A498 renal, 59 µM; with HT29 colon it was more than 100 µM; with SNB-19 CNS, more than 100 µM. In addition, the TGI in the test on UACC-257 melanoma was more than 100 µM; in the test with SK-MEL-2 melanoma it was 40 µM; in the test on HOP-92 NSCLC, 89.7 µM; in the test with OVCAR-4 ovarian, more than 100 µM.

With `CNC1=C(C(=O)OC)SC(c2ccccc2)(c2ccccc2)SC1`, the GI50 in the test on NCI/ADR-RES ovarian is 12 µM; in the test with 786-0 renal it was 31.9 µM; in the test with NCI-H226 lung it was more than 100 µM; with A498 renal it was 11.4 µM; in the test on HT29 colon it was 20.9 µM; with SNB-19 CNS, 52.8 µM. Further, the GI50 with UACC-257 melanoma is 9.2 µM; in the test with SK-MEL-2 melanoma, 7.06 µM; in the test with HOP-92 NSCLC, 20.7 µM; with OVCAR-4 ovarian, 8.58 µM. Moreover, the TGI with NCI/ADR-RES ovarian was 70.2 µM; in the test with 786-0 renal, more than 100 µM; in the test with NCI-H226 lung it was more than 100 µM; in the test on A498 renal it was 85.3 µM; in the test on HT29 colon, more than 100 µM; in the test on SNB-19 CNS it was more than 100 µM. The TGI with UACC-257 melanoma was more than 100 µM; in the test on SK-MEL-2 melanoma it was 85.8 µM; in the test with HOP-92 NSCLC, more than 100 µM; in the test on OVCAR-4 ovarian, 82.6 µM.

With `COc1ccc(-c2cc(-c3cccc(NS(C)(=O)=O)c3)nc(N)c2C#N)cc1`, the GI50 was 0.0603 µM in the test with NCI/ADR-RES ovarian; 0.283 µM with 786-0 renal; 0.0725 µM with NCI-H226 lung; 0.116 µM in the test on A498 renal; 0.0382 µM with HT29 colon; 0.158 µM in the test on SNB-19 CNS. The results for the GI50 in the test with SK-MEL-2 melanoma, with HOP-92 NSCLC and in the test on OVCAR-4 ovarian were 0.119 µM, 3.38 µM and 1.24 µM, respectively. For the same compound, the TGI is 1.1 µM with NCI/ADR-RES ovarian; 13.7 µM in the test with 786-0 renal; 28.2 µM in the test with NCI-H226 lung; 54 µM with A498 renal; 0.731 µM in the test with HT29 colon; more than 84 µM in the test on SNB-19 CNS. The TGI worked out at 14.6 µM in the test on SK-MEL-2 melanoma, 48.7 µM in the test on HOP-92 NSCLC and 99.6 µM with OVCAR-4 ovarian.

For the origin of these results see PubChem BioAssay (NCI).
